This series relates to CCRIS mutagenicity, Ames/micronucleus/aberration tests. The series is described as follows: CCRIS mutagenicity studies.
The mark [1] stands for this setting: Test System: AMES SALMONELLA TYPHIMURIUM, Strain/Indicator: TA98, Metabolic Activation: NONE, Method: STANDARD PLATE.
[2] abbreviates: Test System: AMES SALMONELLA TYPHIMURIUM, Strain/Indicator: TA100, Metabolic Activation: NONE, Method: STANDARD PLATE.
Setting [3] is: Test System: AMES SALMONELLA TYPHIMURIUM, Strain/Indicator: TA98, Metabolic Activation: RAT, LIVER, S-9, AROCLOR 1254, Method: STANDARD PLATE.
Setting [4] is: Test System: AMES SALMONELLA TYPHIMURIUM, Strain/Indicator: TA100, Metabolic Activation: RAT, LIVER, S-9, AROCLOR 1254, Method: STANDARD PLATE.
The mark [5] stands for this setting: Test System: AMES SALMONELLA TYPHIMURIUM, Strain/Indicator: TA1535, Metabolic Activation: NONE, Method: STANDARD PLATE.
Where [6] appears, read: Test System: AMES SALMONELLA TYPHIMURIUM, Strain/Indicator: TA98, Metabolic Activation: NONE, Method: PREINCUBATION
Where [7] appears, read: Test System: AMES SALMONELLA TYPHIMURIUM, Strain/Indicator: TA100, Metabolic Activation: NONE, Method: PREINCUBATION
Setting [8] is: Test System: AMES SALMONELLA TYPHIMURIUM, Strain/Indicator: TA98, Metabolic Activation: RAT, LIVER, S-9, PHENOBARBITAL, Method: PREINCUBATION
Where [9] appears, read: Test System: AMES SALMONELLA TYPHIMURIUM, Strain/Indicator: TA100, Metabolic Activation: RAT, LIVER, S-9, PHENOBARBITAL, Method: PREINCUBATION

SMILES strings stand for the structures. Active and inactive are the calls of the source. The rule behind the calls is not given here.

Turning to `C=CCc1[c-]cccc1.C=CCc1[c-]cccc1.[Pt+2]`, the mutagenic call by setting is: (Test System: AMES SALMONELLA TYPHIMURIUM, Strain/Indicator: TA92, Metabolic Activation: NONE, Method: STANDARD PLATE) “inactive; negative”; under setting [1], “inactive; negative”; under setting [2], “inactive; negative”; (Test System: AMES SALMONELLA TYPHIMURIUM, Strain/Indicator: TA2410, Metabolic Activation: NONE, Method: STANDARD PLATE) “inactive; negative”.

For the compound `[CH3][Hg][CH3]`, the mutagenic call (End Point: IN VITRO CHROMOSOMAL ABERRATIONS, Test System: HUMAN PERIPHERAL LYMPHOCYTES, Metabolic Activation: NONE) is “active; positive (structural changes and ploidy)”; the mutagenic call (Test System: CHINESE HAMSTER G10, Strain/Indicator: G10/6-THIOGUANINE, Metabolic Activation: NONE) is “inactive; negative”; the mutagenic call (Test System: CHINESE HAMSTER G12, Strain/Indicator: G12/6-THIOGUANINE, Metabolic Activation: NONE) was “inactive; negative”; the mutagenic call (Test System: CHINESE HAMSTER V-79, Strain/Indicator: V-79/6-THIOGUANINE, Metabolic Activation: NONE) was “inactive; negative”.

`COC(=O)C12C[C@@]1(C=O)C(C=O)=C[C@@H]1CC(C)(C)C[C@@H]12` (some centres not stated): the mutagenic call is, setting by setting: under setting [1], “active; positive”; under setting [2], “active; positive”; (Test System: AMES SALMONELLA TYPHIMURIUM, Strain/Indicator: TA2637, Metabolic Activation: NONE, Method: STANDARD PLATE) “active; positive”.

Take `Clc1ccc2c(c1)C(c1ccccc1)=NCc1nncn1-2`: the mutagenic call was “inactive; negative” under setting [1]; “inactive; negative” under setting [3]; “inactive; negative” under setting [2]; “inactive; negative” under setting [4]; “inactive; negative” (Test System: AMES SALMONELLA TYPHIMURIUM, Strain/Indicator: TA102, Metabolic Activation: NONE, Method: STANDARD PLATE); “inactive; negative” (Test System: AMES SALMONELLA TYPHIMURIUM, Strain/Indicator: TA102, Metabolic Activation: RAT, LIVER, S-9, AROCLOR 1254, Method: STANDARD PLATE). The mutagenic call is “inactive; negative” under setting [5]; “inactive; negative” (Test System: AMES SALMONELLA TYPHIMURIUM, Strain/Indicator: TA1535, Metabolic Activation: RAT, LIVER, S-9, AROCLOR 1254, Method: STANDARD PLATE); “inactive; negative” (Test System: AMES SALMONELLA TYPHIMURIUM, Strain/Indicator: TA1537, Metabolic Activation: NONE, Method: STANDARD PLATE); “inactive; negative” (Test System: AMES SALMONELLA TYPHIMURIUM, Strain/Indicator: TA1537, Metabolic Activation: RAT, LIVER, S-9, AROCLOR 1254, Method: STANDARD PLATE); “inactive; negative” (Test System: E. COLI, Strain/Indicator: WP2 UVRA, Metabolic Activation: NONE, Method: STANDARD PLATE); “inactive; negative” (Test System: E. COLI, Strain/Indicator: WP2 UVRA, Metabolic Activation: RAT, LIVER, S-9, AROCLOR 1254, Method: STANDARD PLATE).

Regarding `CC(C)C(=O)OCC(C)(C)C(O)C(C)C` (configuration not stated), the mutagenic call is “inactive; negative” under setting [6]; “inactive; negative” (Test System: AMES SALMONELLA TYPHIMURIUM, Strain/Indicator: TA98, Metabolic Activation: RAT LIVER S-9, PHENOBARBITAL AND BETA-NAPHTHOFLAVONE, Method: PREINCUBATION); “inactive; negative” under setting [7]; “inactive; negative” (Test System: AMES SALMONELLA TYPHIMURIUM, Strain/Indicator: TA100, Metabolic Activation: RAT LIVER S-9, PHENOBARBITAL AND BETA-NAPHTHOFLAVONE, Method: PREINCUBATION); “inactive; negative” (Test System: AMES SALMONELLA TYPHIMURIUM, Strain/Indicator: TA1535, Metabolic Activation: NONE, Method: PREINCUBATION); “inactive; negative” (Test System: AMES SALMONELLA TYPHIMURIUM, Strain/Indicator: TA1535, Metabolic Activation: RAT LIVER S-9, PHENOBARBITAL AND BETA-NAPHTHOFLAVONE, Method: PREINCUBATION). The mutagenic call runs as follows: (Test System: AMES SALMONELLA TYPHIMURIUM, Strain/Indicator: TA1537, Metabolic Activation: NONE, Method: PREINCUBATION) “inactive; negative”; (Test System: AMES SALMONELLA TYPHIMURIUM, Strain/Indicator: TA1537, Metabolic Activation: RAT LIVER S-9, PHENOBARBITAL AND BETA-NAPHTHOFLAVONE, Method: PREINCUBATION) “inactive; negative”; (Test System: E.COLI, Strain/Indicator: WP2UVRA/PKM101, Metabolic Activation: NONE, Method: PREINCUBATION) “inactive; negative”; (Test System: E.COLI, Strain/Indicator: WP2UVRA/PKM101, Metabolic Activation: RAT LIVER S-9, PHENOBARBITAL AND BETA-NAPHTHOFLAVONE, Method: PREINCUBATION) “inactive; negative”.

Turning to `c1ccc(-c2ccccc2OCC2CO2)cc1` (configuration not stated), the mutagenic call reads like this: under setting [2], “active; positive”; under setting [5], “active; positive”.

Regarding `Cc1nn(C)c(N)c1C(=O)c1ccccc1F`, the mutagenic call reads like this: (Test System: AMES SALMONELLA TYPHIMURIUM, Strain/Indicator: TA98, Metabolic Activation: RAT, LIVER, S-9, AROCLOR 1254, Method: PREINCUBATION) “active; positive”; under setting [3], “active; positive”; under setting [8], “active; positive”; (Test System: AMES SALMONELLA TYPHIMURIUM, Strain/Indicator: TA100, Metabolic Activation: RAT, LIVER, S-9, AROCLOR 1254, Method: PREINCUBATION) “active; positive”; under setting [4], “active; positive”; under setting [9], “active; positive”.

In the case of `Nc1ccc([N+](=O)[O-])cc1Cl`, the mutagenic call is, setting by setting: (End Point: IN VITRO CHROMOSOMAL ABERRATIONS, Test System: CHL CELLS, Metabolic Activation: RAT, LIVER, S-9, SODIUM PHENOBARBITAL AND 5,6-BENZOFLAVONE) “active; positive (structural changes)”; (End Point: IN VITRO MICRONUCLEUS, Test System: CHL/IU CELLS, Metabolic Activation: NONE) “inactive; negative”; under setting [6], “active; positive”; (Test System: AMES SALMONELLA TYPHIMURIUM, Strain/Indicator: TA98, Metabolic Activation: RAT, LIVER, S-9, KANECHLOR 500, Method: PREINCUBATION) “active; positive”; under setting [7], “inactive; negative”; (Test System: AMES SALMONELLA TYPHIMURIUM, Strain/Indicator: TA100, Metabolic Activation: RAT, LIVER, S-9, KANECHLOR 500, Method: PREINCUBATION) “inactive; negative”. Moreover, the mutagenic call (Test System: UDS RODENT HEPATOCYTES, Strain/Indicator: THY INCORP (NON-S-PHASE), Metabolic Activation: NONE, Method: AUTORADIOGRAPHY) is “inactive; negative”.

`O=S(=O)(O)c1ccc2c(N=Nc3ccccc3)c(O)ccc2c1`: the mutagenic call is “inactive; negative” under setting [6], “inactive; negative” under setting [8], “inactive; negative” under setting [7] and “inactive; negative” under setting [9].

These data come from PubChem BioAssay AID1259407 (Chemical Carcinogenesis Research Information System (CCRIS), 2018).
